Results published in patent US7524853B2 (Solvay Pharmaceuticals B.V., priority 2003, dated 2009).

Columns and labels:
Type in all cases: cell-based
[1] = target: T1, 17β-hydroxysteroid dehydrogenase type 3 (17β-HSD type 3) (Homo sapiens, UniProt P37058); assay: Inhibition of 17β-HSD type 3 in MCF-7 cells stably expressing the isoenzyme (tritium labeled androstenedione conversion, HPLC); conditions: MCF-7 cells expressing 17β-HSD type 3, 2 nM tritium labeled androstenedione; for inhibition at 1 µM / inhibition at 10 µM: MCF7; for inhibition at 1 µM / % Inhibition HSD3 1 μM: 1 μM test compound; for inhibition at 1 µM: read-out: % Inhibition HSD3 1 μM; for inhibition at 10 µM / % Inhibition HSD3 10 μM: 10 μM test compound; for inhibition at 10 µM: read-out: % Inhibition HSD3 10 μM
T1 construct: expressed in transfected cells; host or cells: MCF-7
T1 sequence (P37058 1-310): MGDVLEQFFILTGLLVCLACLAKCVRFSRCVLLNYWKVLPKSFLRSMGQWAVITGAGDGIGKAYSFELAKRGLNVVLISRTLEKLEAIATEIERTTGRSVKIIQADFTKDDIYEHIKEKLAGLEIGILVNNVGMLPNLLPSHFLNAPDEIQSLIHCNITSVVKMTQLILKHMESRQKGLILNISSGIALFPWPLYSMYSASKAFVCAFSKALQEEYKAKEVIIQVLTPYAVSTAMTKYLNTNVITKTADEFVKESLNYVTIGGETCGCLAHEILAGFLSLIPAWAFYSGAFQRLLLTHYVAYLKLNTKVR
Method in brief: (§1)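 Cells: stable MCF-7 transfectants per isoenzyme. Step one, add compound (two concentrations) plus 2 nM labelled substrate to growth medium. Step two, remove medium at a set time and stop with trichloroacetic acid. Step three, quantify conversion by HPLC with flow scintillation.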

[2] = target: T2, 17β-hydroxysteroid dehydrogenase type 2 (17β-HSD type 2) (Homo sapiens, UniProt P37059); assay: Inhibition of 17β-HSD type 2 in MCF-7 cells stably expressing the isoenzyme (tritium labeled estradiol conversion, HPLC); conditions: MCF-7 cells expressing 17β-HSD type 2, 2 nM tritium labeled estradiol; for inhibition at 1 µM / inhibition at 10 µM: MCF7; for inhibition at 1 µM / % Inhibition HSD2 1 μM: 1 μM test compound; for inhibition at 1 µM: read-out: % Inhibition HSD2 1 μM; for inhibition at 10 µM / % Inhibition HSD2 10 μM: 10 μM test compound; for inhibition at 10 µM: read-out: % Inhibition HSD2 10 μM
T2 construct: expressed in transfected cells; host or cells: MCF-7
T2 sequence (P37059 1-387): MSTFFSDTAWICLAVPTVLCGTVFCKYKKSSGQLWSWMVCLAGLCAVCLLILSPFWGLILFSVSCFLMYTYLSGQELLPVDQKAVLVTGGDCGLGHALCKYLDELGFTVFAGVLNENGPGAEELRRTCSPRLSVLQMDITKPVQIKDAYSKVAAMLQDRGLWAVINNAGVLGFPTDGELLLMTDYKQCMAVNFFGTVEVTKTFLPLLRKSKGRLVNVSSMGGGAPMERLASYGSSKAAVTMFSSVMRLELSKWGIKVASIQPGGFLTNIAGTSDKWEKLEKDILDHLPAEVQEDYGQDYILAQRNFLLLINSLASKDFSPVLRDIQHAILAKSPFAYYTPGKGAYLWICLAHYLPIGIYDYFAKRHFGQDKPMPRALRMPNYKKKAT
Method in brief: as §1

[3] = target: T3, 17β-hydroxysteroid dehydrogenase type 1 (17β-HSD type 1) (Homo sapiens, UniProt P14061); assay: Inhibition of 17β-HSD type 1 in MCF-7 cells stably expressing the isoenzyme (tritium labeled estrone conversion, HPLC); conditions: MCF-7 cells expressing 17β-HSD type 1, 2 nM tritium labeled estrone; for inhibition at 1 µM / inhibition at 10 µM: MCF7; for inhibition at 1 µM / % Inhibition HSD1 1 μM: 1 μM test compound; for inhibition at 1 µM: read-out: % Inhibition HSD1 1 μM; for inhibition at 10 µM / % Inhibition HSD1 10 μM: 10 μM test compound; for inhibition at 10 µM: read-out: % Inhibition HSD1 10 μM
T3 construct: expressed in transfected cells; host or cells: MCF-7
T3 sequence (P14061 1-328): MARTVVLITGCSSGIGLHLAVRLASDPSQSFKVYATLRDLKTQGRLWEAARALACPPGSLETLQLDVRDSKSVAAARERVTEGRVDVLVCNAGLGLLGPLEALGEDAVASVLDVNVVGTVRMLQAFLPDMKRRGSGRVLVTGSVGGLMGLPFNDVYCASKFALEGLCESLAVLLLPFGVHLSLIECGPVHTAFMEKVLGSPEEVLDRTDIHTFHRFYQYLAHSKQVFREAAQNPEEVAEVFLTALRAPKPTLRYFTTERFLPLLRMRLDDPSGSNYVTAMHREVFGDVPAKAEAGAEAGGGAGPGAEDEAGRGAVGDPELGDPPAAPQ
Method in brief: as §1

Row | inhibition at 1 µM [1] | inhibition at 10 µM [1] | inhibition at 1 µM [2] | inhibition at 10 µM [2] | inhibition at 1 µM [3] | inhibition at 10 µM [3] | Structure (SMILES) | % Inhibition HSD3 1 μM [1] | % Inhibition HSD3 10 μM [1] | % Inhibition HSD2 1 μM [2] | % Inhibition HSD2 10 μM [2] | % Inhibition HSD1 1 μM [3] | % Inhibition HSD1 10 μM [3]
1 | 12.5% | 52.1% | 4.5% | 17.7% | 40.1% | 74.2% | CCC(C)Cn1c(-c2cc(OC)c(OC)c(OC)c2Cl)nc2sc3c(O)cccc3c2c1=O (stereo not drawn) [No. 143, 2-(2-Chloro-3,4,5-trimethoxyphenyl)-8-hydroxy-3-(2-methylbutyl)-3H-benzo[4,5]thieno[2,3-d]pyrimidin-4-one] | – | – | – | – | – | –
2 | 12.7% | 19.3% | 13.6% | 31.1% | 23.5% | 33.7% | COc1cc(-c2nc3sc4c(c3c(=O)n2Cc2cccnc2)CCCC4)cc(OC)c1OC [No. 144] | – | – | – | – | – | –
3 | 19.2% | 21.6% | 25.9% | 25.7% | 23.6% | 21.2% | COc1cc(-c2nc3sc4c(c3c(=O)n2Cc2ccccc2)CCCC4O)cc(OC)c1OC (stereo not drawn) [No. 145, 3-Benzyl-8-hydroxy-2-(3,4,5-trimethoxyphenyl)-5,6,7,8-tetrahydro-3H-benzo[4,5]thieno[2,3-d]pyrimidin-4-one] | – | – | – | – | – | –
4 | 14.7% | 37.9% | 14.3% | 5.1% | 7.3% | 50.9% | COc1ccc(-c2nc3sc4c(c3c(=O)n2Cc2ccccc2)CCC(Br)C4=O)cc1 (stereo not drawn) [No. 146, 3-Benzyl-7-bromo-2-p-methoxyphenyl-6,7-dihydro-3H,5H-benzo[4,5]thieno[2,3-d]pyrimidine-4,8-dione] | – | – | – | – | – | –
5 | 10.3% | 9.1% | 0.1% | 17.2% | 11.4% | 12.5% | COc1ccc(-c2nc3sc4c(c3c(=O)n2Cc2ccccc2)CCC(Br)(Br)C4=O)cc1 [No. 147, 3-Benzyl-7,7-dibromo-2-p-methoxyphenyl-6,7-dihydro-3H,5H-benzo[4,5]thieno[2,3-d]pyrimidine-4,8-dione] | – | – | – | – | – | –
6 | 53.7% | 97.9% | 29.1% | 42% | 27% | 53.2% | COCCn1c(-c2cccs2)nc2sc3c(O)c(Br)ccc3c2c1=O [No. 148, 7-Bromo-8-hydroxy-3-(2-methoxyethyl)-2-thiophen-2-yl-3H-benzo[4,5]thieno[2,3-d]pyrimidin-4-one] | – | – | – | – | – | –
7 | 31% | 59.8% | 34.6% | 29.9% | 17.8% | 18.3% | O=c1c2c(nc(-c3cccs3)n1CCO)sc1c(O)c(Br)ccc12 [No. 149, 7-Bromo-8-hydroxy-3-(2-hydroxyethyl)-2-thiophen-2-yl-3H-benzo[4,5]thieno[2,3-d]pyrimidin-4-one] | – | – | – | – | – | –
8 | -1.1% | 22% | 6.4% | 11.4% | 0.4% | 3.4% | COc1cc(-c2nc3sc4c(Cl)c(C=O)ccc4c3c(=O)n2Cc2ccccc2)c(Cl)c(OC)c1OC [No. 150, 3-Benzyl-8-chloro-2-(2-chloro-3,4,5-trimethoxyphenyl)-4-oxo-3,4-dihydro-benzo[4,5]thieno[2,3-d]pyrimidine-7-carbaldehyde] | – | – | – | – | – | –
9 | 62.3% | 91.7% | 33.2% | 64.6% | 30.6% | 60.9% | CCCCn1c(-c2ccccc2OC)nc2sc3c(O)cccc3c2c1=O [No. 633, 3-Butyl-8-hydroxy-2-(2-methoxy-phenyl)-3H-benzo[4,5]thieno[2,3-d]pyrimidin-4-one] | – | – | – | – | – | –

Second part, the compound before the results:

Row | Structure (SMILES) | inhibition at 1 µM [1] | inhibition at 10 µM [1] | inhibition at 1 µM [2] | inhibition at 10 µM [2] | inhibition at 1 µM [3] | inhibition at 10 µM [3] | % Inhibition HSD3 1 μM [1] | % Inhibition HSD3 10 μM [1] | % Inhibition HSD2 1 μM [2] | % Inhibition HSD2 10 μM [2] | % Inhibition HSD1 1 μM [3] | % Inhibition HSD1 10 μM [3]
10 | COc1cc(-c2nc3sc4c(O)cccc4c3c(=O)n2CC2CCCO2)c(Cl)c(OC)c1OC (stereo not drawn) [No. 140, 2-(2-Chloro-3,4,5-trimethoxyphenyl)-8-hydroxy-3-(tetrahydrofuran-2-ylmethyl)-3H-benzo[4,5]thieno[2,3-d]pyrimidin-4-one] | 8.8% | 63.5% | 10.3% | 36.8% | 39.5% | 81% | – | – | – | – | – | –
11 | CCC(C)Cn1c(-c2cc(OC)c(OC)c(OC)c2Cl)nc2sc3c(c2c1=O)CCC(Cl)C3=O (stereo not drawn) [No. 141, 7-Chloro-2-(2-chloro-3,4,5-trimethoxyphenyl)-3-(2-methylbutyl)-6,7-dihydro-3H,5H-benzo[4,5]thieno[2,3-d]pyrimidine-4,8-dione] | 2.7% | 22.7% | 3% | 1.1% | 25% | 58.9% | – | – | – | – | – | –
12 | CCC(C)Cn1c(-c2cc(OC)c(OC)c(OC)c2Cl)nc2sc3c(c2c1=O)CCC(Cl)(Cl)C3=O (stereo not drawn) [No. 142, 7,7-Dichloro-2-(2-chloro-3,4,5-trimethoxyphenyl)-3-(2-methylbutyl)-6,7-dihydro-3H,5H-benzo[4,5]thieno[2,3-d]pyrimidine-4,8-dione] | 8% | 24.1% | 6.2% | 10.5% | 32.8% | 52.7% | – | – | – | – | – | –
13 | O=c1c2c(nc(CCC3CCCC3)n1CCc1ccccc1)sc1c(O)cccc12 [No. 627] | – | – | – | – | – | – | 10.7% | 33.9% | 27.1% | 22.6% | 25.2% | 26.6%
14 | CCCCC(CC)c1nc2sc3c(O)cccc3c2c(=O)n1CCc1ccccc1 (stereo not drawn) [No. 628] | – | – | – | – | – | – | 12.4% | 36.1% | −0.9% | 22.5% | 11.4% | 32.4%
15 | COCc1nc2sc3c(O)cccc3c2c(=O)n1CCc1ccccc1 [No. 629] | – | – | – | – | – | – | 19.3% | 35.9% | 39.1% | 71.7% | 22.4% | 33.1%
16 | O=c1c2c(nc(-c3ccc(F)cc3F)n1CCc1ccccc1)sc1c(O)cccc12 [No. 630] | – | – | – | – | – | – | 10.9% | 35.4% | 24.7% | 19.9% | 25.1% | 21.0%
17 | CCCCn1c(CCC2CCCC2)nc2sc3c(O)cccc3c2c1=O [No. 634] | – | – | – | – | – | – | 13.3% | 56.4% | 16.8% | 20.1% | 16.8% | 17.9%
18 | CCCCC(CC)c1nc2sc3c(O)cccc3c2c(=O)n1CCCC (stereo not drawn) [No. 635] | – | – | – | – | – | – | 11.6% | 62.5% | 15.4% | 50.8% | 4.9% | 18.9%
